From patent publication US10981911B2, “Imidazopyrrolopyridine as inhibitors of the JAK family of kinases” (Janssen Pharmaceutica NV, priority 2016, dated 2021)

Experiments:
Type in all cases: biochemical
[1] = target: JAK1-JH1JH2 (Homo sapiens (Human), UniProt P23458); experiment: Enzymatic inhibition assay (RapidFire HTMS), JAK1; details: 12.5 μM ATP, 200 μM substrate; read-out: JAK1-JH2JH1 IC50
Excerpt: (§1) LC/MS grade Water and Acetonitrile (ACN), were purchased from HoneyWell, Burdick & Jackson (Muskegon, Mich., USA). Dimethylsulfoxide 99.8% (DMSO) and Trifluoroacetic Acid 99.5% (TFA) were purchased from EMD Chemical (Gibbstown, N.J., USA). Adenosine triphosphate (ATP), 4-Morpholinepropanesulfonic acid (MOPS), Magnesium chloride (MgCl2), ethylenediaminetetraacetic acid (EDTA), dithiothreitol (DTT), formic acid >95% (FA) and Tween-20 were purchased from Sigma (St Louis, Mo., USA). 384-well polypropylene plates, Cat #781280 were purchased from Greiner (Monroe, N.C.), RapidFire™ cartridge A C4 Column (Agilent Technologies, Santa Clara, Calif.).
(§2) The HTMS experiments were performed in positive ionization mode on a RapidFire 300 instrument (Agilent Technologies, Santa Clara, Calif.), coupled with an ABSiex QTrap 4000 system with an Electrospray Ionization source (RF-MS) (Concord, ON, Canada). […] The entire system was operated using the RapidFire software interfaced with Analyst software for the mass spectrometer.
(§3) 11-point dosing series were made for each compound by serially diluting 1:3 or 1:4 in DMSO, with point 12 being a DMSO control. From the serial dilution plates, sample was transferred to a 384 wells assay plate (#781280, Greiner, Monroe, N.C.) using Labcyte Echo (Sunnyvale, Calif.), or Biosero ATS (San Diego, Calif.). The compounds were tested in duplicate. Column 12 was used for positive controls, and column 24 contained negative controls with no enzyme added. A compound from our internal collection, with inhibitory activity for JAK isoforms, was used as a reference compound. The final concentration of DMSO was ≤0.25% in a 20 μL reaction. […] The Tyk2 enzyme was pre-incubated with 2 mM ATP for 30 min prior to the reaction initiation. Immediately after the addition of the enzyme to the reaction mixture, the plate was centrifuged at 1000 rpm for 1 minute and incubated at 25° C. for 45 minutes for JAK 3 and 90 minutes for JAK1, JAK2 and Tyk2. The reaction was quenched by the addition of 20 μL of 0.5% TFA containing 0.15 μM of internal standard peptide using Multidrop Combi reagent dispenser (Thermo Scientific, Waltham, Mass.). […] After the quench, the assay plate was centrifuged at 3000 rpm for 3 minutes and sealed with pierceable aluminum foil (Cat #06644-001, Agilent) using a PlateLoc (Agilent Technologies, Santa Clara, Calif.). The plates then were transferred on to the RapidFire for the MS analysis. Compound inhibition was assessed by a decrease of the phosphorylated product levels in sample wells compared to the non-inhibited enzyme reaction.
(§4) The sample analysis on the RapidFire was performed using a mobile phase A consisting of Water/TFA/FA (100:0.01:0.1, v/v/v), a mobile phase B consisting of ACN/Water/TFA/FA (80:20:0.01:0.1, v/v/v). […] The samples were aspirated directly from the 384 assay plate and delivered onto RF-MS microscale solid-phase C4 extraction cartridge (Type A). The undesired component such as salt, cofactor, detergent and large protein were washed out and the retained analytes (substrate, product and IS) were coeluted directly onto the ABSiex Qtrap 4000 system.

[2] = target: JAK2-JH1JH2 (Homo sapiens (Human), UniProt O60674); experiment: Enzymatic inhibition assay (RapidFire HTMS), JAK2; details: 30 μM ATP, 40 μM substrate
Excerpt: as §1, §2, §3, §4

[3] = target: JAK3-JH1JH2 (Homo sapiens (Human), UniProt P52333); experiment: Enzymatic inhibition assay (RapidFire HTMS), JAK3; details: 150 μM ATP, 40 μM substrate
Excerpt: as §1, §2
as §3, with “compound.” for “compound. The final concentration of DMSO was ≤0.25% in a 20 μL reaction.”
as §4

[4] = target: Tyk2-JH1JH2 (Homo sapiens (Human), UniProt P29597, C1142A/C936A); experiment: Enzymatic inhibition assay (RapidFire HTMS), Tyk2; details: 50 μM ATP, 200 μM substrate
Excerpt: as §1, §2, §3, §4

Sequence of JAK3-JH1JH2 (P52333 512-1124): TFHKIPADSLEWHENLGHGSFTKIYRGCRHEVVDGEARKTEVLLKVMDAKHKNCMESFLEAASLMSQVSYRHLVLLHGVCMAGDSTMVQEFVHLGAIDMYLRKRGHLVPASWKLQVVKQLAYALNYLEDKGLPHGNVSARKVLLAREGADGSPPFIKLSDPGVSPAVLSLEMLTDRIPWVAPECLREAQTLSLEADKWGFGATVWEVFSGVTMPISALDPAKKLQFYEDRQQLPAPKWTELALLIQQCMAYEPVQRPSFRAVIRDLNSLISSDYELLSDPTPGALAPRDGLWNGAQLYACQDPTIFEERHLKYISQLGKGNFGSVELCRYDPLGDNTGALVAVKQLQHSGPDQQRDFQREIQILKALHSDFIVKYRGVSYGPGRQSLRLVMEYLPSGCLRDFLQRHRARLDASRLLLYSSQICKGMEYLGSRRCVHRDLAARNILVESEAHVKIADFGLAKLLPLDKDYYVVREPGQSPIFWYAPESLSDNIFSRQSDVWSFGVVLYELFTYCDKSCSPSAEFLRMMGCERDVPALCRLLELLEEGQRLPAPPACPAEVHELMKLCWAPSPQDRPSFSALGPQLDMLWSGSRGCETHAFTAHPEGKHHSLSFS
Sequence of JAK2-JH1JH2 (O60674 532-1132): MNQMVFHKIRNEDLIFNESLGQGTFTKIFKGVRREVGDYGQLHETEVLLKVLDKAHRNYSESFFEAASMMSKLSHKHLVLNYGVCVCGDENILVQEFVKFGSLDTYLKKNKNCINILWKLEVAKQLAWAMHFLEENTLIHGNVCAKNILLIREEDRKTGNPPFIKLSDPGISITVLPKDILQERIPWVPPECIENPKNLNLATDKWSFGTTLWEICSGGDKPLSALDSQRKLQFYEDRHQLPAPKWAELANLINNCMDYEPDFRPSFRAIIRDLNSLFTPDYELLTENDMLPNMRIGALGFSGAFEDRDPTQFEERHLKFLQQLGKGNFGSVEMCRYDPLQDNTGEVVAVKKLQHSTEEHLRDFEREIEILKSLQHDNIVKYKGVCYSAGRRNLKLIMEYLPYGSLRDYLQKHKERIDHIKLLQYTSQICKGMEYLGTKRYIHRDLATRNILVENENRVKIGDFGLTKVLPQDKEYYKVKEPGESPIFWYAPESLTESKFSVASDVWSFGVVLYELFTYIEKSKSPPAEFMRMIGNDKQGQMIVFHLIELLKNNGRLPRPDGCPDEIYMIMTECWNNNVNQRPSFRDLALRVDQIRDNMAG
Sequence of Tyk2-JH1JH2 (P29597 580-1182 C936A/C1142A): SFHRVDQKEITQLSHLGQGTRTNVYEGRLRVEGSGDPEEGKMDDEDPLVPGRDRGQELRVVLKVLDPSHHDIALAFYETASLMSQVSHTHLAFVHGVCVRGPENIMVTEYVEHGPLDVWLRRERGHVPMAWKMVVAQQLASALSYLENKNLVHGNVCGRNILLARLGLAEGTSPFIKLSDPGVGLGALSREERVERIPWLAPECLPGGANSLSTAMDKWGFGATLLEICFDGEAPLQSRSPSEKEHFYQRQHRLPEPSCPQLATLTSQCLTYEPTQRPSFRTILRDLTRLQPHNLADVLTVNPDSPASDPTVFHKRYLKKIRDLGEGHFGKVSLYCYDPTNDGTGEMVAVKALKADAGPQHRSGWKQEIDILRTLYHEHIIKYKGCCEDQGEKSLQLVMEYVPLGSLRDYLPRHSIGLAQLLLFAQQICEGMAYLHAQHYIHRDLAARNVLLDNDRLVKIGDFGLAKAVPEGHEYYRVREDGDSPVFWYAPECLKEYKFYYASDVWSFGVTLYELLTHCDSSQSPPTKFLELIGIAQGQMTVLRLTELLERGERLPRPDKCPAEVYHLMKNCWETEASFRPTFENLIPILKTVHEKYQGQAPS
Sequence of JAK1-JH1JH2 (P23458 574-1154): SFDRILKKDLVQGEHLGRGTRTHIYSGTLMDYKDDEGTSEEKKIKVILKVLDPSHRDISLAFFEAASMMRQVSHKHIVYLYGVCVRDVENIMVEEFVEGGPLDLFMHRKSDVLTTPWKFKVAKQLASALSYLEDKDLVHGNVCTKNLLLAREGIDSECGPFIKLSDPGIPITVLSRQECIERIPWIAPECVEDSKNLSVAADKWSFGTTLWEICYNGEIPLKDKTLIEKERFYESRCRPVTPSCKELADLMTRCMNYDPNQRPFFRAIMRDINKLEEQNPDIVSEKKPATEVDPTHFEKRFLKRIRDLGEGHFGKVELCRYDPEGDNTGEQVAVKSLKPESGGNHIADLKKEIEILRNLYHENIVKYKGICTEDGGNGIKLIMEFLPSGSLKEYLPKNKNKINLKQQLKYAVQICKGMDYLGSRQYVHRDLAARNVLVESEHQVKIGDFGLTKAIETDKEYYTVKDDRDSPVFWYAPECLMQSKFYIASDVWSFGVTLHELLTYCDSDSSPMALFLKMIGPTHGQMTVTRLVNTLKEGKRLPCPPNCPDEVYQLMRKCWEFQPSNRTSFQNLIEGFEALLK

IC50 [1] [nM] | IC50 [2] [nM] | IC50 [3] [nM] | IC50 [4] [nM] | Structure (SMILES)
0.1 | 1.4 | 38.1 | 3.5 | N#CC[C@H]1CC[C@H](n2c(CC(=O)NC34CCC(C#N)(CC3)C4)nc3cnc4[nH]ccc4c32)CC1 [Ex. 23, N-(4-Cyanobicyclo[2.2.1]heptan-1-yl)-2-(1-((1r,4r)-4-(cyanomethyl)cyclohexyl)-1,6-dihydroimidazo[4,5-d]pyrrolo[2,3-b]pyridin-2-yl)acetamide]
0.1 | 4.9 | 57.5 | 3.3 | N#CC[C@H]1CC[C@H](n2c(CC(=O)NCC3(O)COC3)nc3cnc4[nH]ccc4c32)CC1 [Ex. 24, 2-(1-((1r,4r)-4-(Cyanomethyl)cyclohexyl)-1,6-dihydroimidazo[4,5-d]pyrrolo[2,3-b]pyridin-2-yl)-N-((3-hydroxyoxetan-3-yl)methyl)acetamide]
0.1 | 6.1 | 106 | 2.7 | N#CC[C@H]1CC[C@H](n2c(CC(=O)N3CCC(N4CCOCC4)CC3)nc3cnc4[nH]ccc4c32)CC1 [Ex. 26, 2-((1r,4r)-4-(2-(2-(4-Morpholinopiperidin-1-yl)-2-oxoethyl)imidazo[4,5-d]pyrrolo[2,3-b]pyridin-1(6H)-yl)cyclohexyl)acetonitrile]
0.1 | 2.9 | 36.9 | 7.2 | N#CC[C@H]1CC[C@H](n2c(CC(=O)N[C@H]3CC[C@H](CO)CC3)nc3cnc4[nH]ccc4c32)CC1 [Ex. 27, 2-(1-((1r,4r)-4-(Cyanomethyl)cyclohexyl)-1,6-dihydroimidazo[4,5-d]pyrrolo[2,3-b]pyridin-2-yl)-N-((1r,4r)-4-(hydroxymethyl)cyclohexyl)acetamide]
0.1 | 2.4 | 32.7 | 3.5 | N#CC[C@H]1CC[C@H](n2c(CC(=O)NC3CCCCC3)nc3cnc4[nH]ccc4c32)CC1 [Ex. 28, 2-(1-((1r,4r)-4-(Cyanomethyl)cyclohexyl)-1,6-dihydroimidazo[4,5-d]pyrrolo[2,3-b]pyridin-2-yl)-N-cyclohexylacetamide]
0.1 | 7.3 | 67.2 | 3.8 | N#CC[C@H]1CC[C@H](n2c(CC(=O)NCCO)nc3cnc4[nH]ccc4c32)CC1 [Ex. 29, 2-(1-((1r,4r)-4-(Cyanomethyl)cyclohexyl)-1,6-dihydroimidazo[4,5-d]pyrrolo[2,3-b]pyridin-2-yl)-N-(2-hydroxyethyl)acetamide]
0.2 | 6.6 | 996 | 1.6 | N#CC[C@H]1CC[C@H](n2c(CNC(=N)c3ccccc3)nc3cnc4[nH]ccc4c32)CC1 [Ex. 30, N-((1-((1r,4r)-4-(Cyanomethyl)cyclohexyl)-1,6-dihydroimidazo[4,5-d]pyrrolo[2,3-b]pyridin-2-yl)methyl)benzimidamide]
0.2 | 5.5 | 121 | 3.7 | N#CC[C@H]1CC[C@H](n2c(-c3n[nH]cc3Cl)nc3cnc4[nH]ccc4c32)CC1 [Ex. 31, 2-((1r,4r)-4-(2-(4-Chloro-1H-pyrazol-3-yl)imidazo[4,5-d]pyrrolo[2,3-b]pyridin-1(6H)-yl)cyclohexyl)acetonitrile]
0.2 | 1.3 | 59.3 | 2.8 | N#CC[C@H]1CC[C@H](n2c(CC(=O)NC34CC5CC(CC(C5)C3)C4)nc3cnc4[nH]ccc4c32)CC1 [Ex. 32, N-((3R,5R)-Adamantan-1-yl)-2-(1-((1r,4r)-4-(cyanomethyl)cyclohexyl)-1,6-dihydroimidazo[4,5-d]pyrrolo[2,3-b]pyridin-2-yl)acetamide]
0.2 | 2.3 | 38 | 3.8 | N#CC[C@H]1CC[C@H](n2c(CC(=O)N[C@H]3CC[C@H](O)CC3)nc3cnc4[nH]ccc4c32)CC1 [Ex. 33, 2-(1-((1r,4r)-4-(Cyanomethyl)cyclohexyl)-1,6-dihydroimidazo[4,5-d]pyrrolo[2,3-b]pyridin-2-yl)-N-((1r,4r)-4-hydroxycyclohexyl)acetamide]
0.2 | 3.6 | 107 | 4.5 | N#CC[C@H]1CC[C@H](n2c(CC(=O)NCc3cnccn3)nc3cnc4[nH]ccc4c32)CC1 [Ex. 35, 2-(1-((1r,4r)-4-(Cyanomethyl)cyclohexyl)-1,6-dihydroimidazo[4,5-d]pyrrolo[2,3-b]pyridin-2-yl)-N-(pyrazin-2-ylmethyl)acetamide]
0.2 | 0.8 | 12 | 2.2 | N#CC[C@H]1CC[C@H](n2c(CC(=O)NCc3ncc[nH]3)nc3cnc4[nH]ccc4c32)CC1 [Ex. 36, N-((1H-imidazol-2-yl)methyl)-2-(1-((1r,4r)-4-(cyanomethyl)cyclohexyl)-1,6-dihydroimidazo[4,5-d]pyrrolo[2,3-b]pyridin-2-yl)acetamide]
0.2 | 4.6 | 38.8 | 4.3 | N#CC[C@H]1CC[C@H](n2c(CC(=O)N[C@H]3C[C@H](O)C3)nc3cnc4[nH]ccc4c32)CC1 [Ex. 37, 2-(1-((1r,4r)-4-(Cyanomethyl)cyclohexyl)-1,6-dihydroimidazo[4,5-d]pyrrolo[2,3-b]pyridin-2-yl)-N-((1R,3R)-3-hydroxycyclobutyl)acetamide]
0.2 | 5.3 | 142 | 10 | N#CC[C@H]1CC[C@H](n2c(CC(=O)NCc3ccc(C#N)cc3)nc3cnc4[nH]ccc4c32)CC1 [Ex. 39, N-(4-Cyanobenzyl)-2-(1-((1r,4r)-4-(cyanomethyl)cyclohexyl)-1,6-dihydroimidazo[4,5-d]pyrrolo[2,3-b]pyridin-2-yl)acetamide]
< 0.2 | 1 | 47 | 0.3 | N#CC[C@H]1CC[C@H](n2c(CNC(N)=O)nc3cnc4[nH]ccc4c32)CC1 [Ex. 40, 1-((1-((1r,4r)-4-(Cyanomethyl)cyclohexyl)-1,6-dihydroimidazo[4,5-d]pyrrolo[2,3-b]pyridin-2-yl)methyl)urea]
< 0.2 | 0.4 | 19.9 | 0.6 | N#CC[C@H]1CC[C@H](n2c(Cc3cscn3)nc3cnc4[nH]ccc4c32)CC1 [Ex. 41, 2-((1r,4r)-4-(2-(Thiazol-4-ylmethyl)imidazo[4,5-d]pyrrolo[2,3-b]pyridin-1(6H)-yl)cyclohexyl)acetonitrile]
